Where a name gives a salt, the structure may show the parent alone. Read-outs that look alike come from different tables or passages of the source.
Legend:
uptake of norepinephrine = uptake of norepinephrine (Homo sapiens, UniProt P23975); assay: Uptake inhibition of norepinephrine, cellular assay; type: cell-based
Description: (§1) The effect of the compounds of the present invention as inhibitors of the uptake of norepinephrine and serotonin in cellular assays at concentrations that range from […] to 1 nM is determined following the methods described in Galli, A. et al. J Exp Biol 1995, 198(Pt. 10): 2197-212 and Gu, H. et al. J Biol Chem. 1994, 269(10):7124-30.

uptake of serotonin = uptake of serotonin (Homo sapiens, UniProt P31645); assay: Uptake inhibition of serotonin, cellular assay; type: cell-based
uptake of serotonin, sequence (P31645 whole entry): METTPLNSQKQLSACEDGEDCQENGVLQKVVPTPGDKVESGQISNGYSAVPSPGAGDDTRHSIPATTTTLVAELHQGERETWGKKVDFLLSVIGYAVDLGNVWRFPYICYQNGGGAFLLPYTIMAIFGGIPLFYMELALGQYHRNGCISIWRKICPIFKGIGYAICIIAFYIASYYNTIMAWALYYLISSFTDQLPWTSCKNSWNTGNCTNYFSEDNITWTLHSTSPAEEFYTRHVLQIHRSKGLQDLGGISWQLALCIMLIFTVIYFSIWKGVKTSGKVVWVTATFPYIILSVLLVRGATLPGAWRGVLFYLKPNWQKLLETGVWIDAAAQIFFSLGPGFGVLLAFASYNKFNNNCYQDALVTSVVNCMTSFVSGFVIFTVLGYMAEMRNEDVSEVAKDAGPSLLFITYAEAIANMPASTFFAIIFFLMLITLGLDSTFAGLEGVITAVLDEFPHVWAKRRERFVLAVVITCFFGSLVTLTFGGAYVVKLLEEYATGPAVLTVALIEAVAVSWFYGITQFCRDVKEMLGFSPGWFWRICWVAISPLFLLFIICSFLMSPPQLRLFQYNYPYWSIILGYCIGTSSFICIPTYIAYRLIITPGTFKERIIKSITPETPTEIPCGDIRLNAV
Description: as §1

serotonin transporter = molecular target: T1, serotonin transporter (Homo sapiens, UniProt P31645); assay: Serotonin transporter binding radioligand inhibition ([3H]-imipramine); conditions: read-out: serotonin binding inhibition
T1 construct: expressed in transfected cells; host or cells: CHO cells
T1 sequence (P31645 whole entry): as above
Description: The serotonin transporter removes serotonin from the synaptic deft. The serotonin transporter terminates the effects of […], enabling its reuse by the presynaptic neuron.

[1] = molecular target: T2, norepinephrine (NE) transporter (Homo sapiens, UniProt P23975); assay: Norepinephrine transporter binding radioligand inhibition ([3H]-nisoxetine); conditions: concentration 10 μM
T2 construct: expressed in transfected cells; host or cells: CHO cells
T2 sequence (P23975 whole entry): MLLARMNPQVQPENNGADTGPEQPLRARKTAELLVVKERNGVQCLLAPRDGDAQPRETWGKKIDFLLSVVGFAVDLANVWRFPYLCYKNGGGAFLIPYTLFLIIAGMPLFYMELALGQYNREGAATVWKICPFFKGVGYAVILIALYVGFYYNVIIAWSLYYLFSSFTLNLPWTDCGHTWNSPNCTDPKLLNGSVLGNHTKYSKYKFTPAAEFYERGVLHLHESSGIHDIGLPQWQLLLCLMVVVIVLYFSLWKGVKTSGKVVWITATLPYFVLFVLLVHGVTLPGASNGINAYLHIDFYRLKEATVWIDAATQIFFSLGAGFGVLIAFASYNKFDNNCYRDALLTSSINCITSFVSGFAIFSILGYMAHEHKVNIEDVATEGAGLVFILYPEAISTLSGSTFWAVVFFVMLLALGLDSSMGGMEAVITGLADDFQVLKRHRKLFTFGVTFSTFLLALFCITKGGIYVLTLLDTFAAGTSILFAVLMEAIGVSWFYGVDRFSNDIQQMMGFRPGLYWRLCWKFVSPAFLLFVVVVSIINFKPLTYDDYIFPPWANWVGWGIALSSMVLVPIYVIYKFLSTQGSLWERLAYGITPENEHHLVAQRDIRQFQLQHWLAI
Description: The norepinephrine (NE) transporter removes NE from the synaptic cleft. The NE transporter terminates the effects of […], enabling its reuse by the presynaptic neuron. The in vitro binding of the compounds of the invention to the NE transporter and the percent inhibition of control-specific binding ([^3H]-nisoxetine in human recombinant CHO cells) is determined following the method described in Pacholczyk et al., (Nature 1991, 350(6316): 350-4.

mice = assay: Novel object recognition test (acute); type: in vivo; conditions: 30 mg/kg i.p., same experimental conditions
Description: The novel object recognition task is used to evaluate cognition, particularly memory recognition, in rodent models of CNS disorders. This test is based on the spontaneous tendency of rodents to spend more time exploring a novel object than a familiar one. The choice to explore the novel object reflects the use of learning and memory recognition. The novel object recognition test provides a measure of activity in a novel environment allowing tests for emotional reactivity and also for novel object recognition, a cognitive domain that depends on hippocampal functional integrity. Animals were habituated to the presence of two identical objects (LEGO® pieces) during a single session of 5 minutes (training) and sniffing (exploration of an object was defined as pointing the nose to the object at a distance of <1 cm and/or touching it with the nose). Mice were injected with saline or with the compound to be tested and returned to their home cages. At 24 hours the animals were introduced in the same open field again with the same two items (familiarization), and again exploration in each of them for 5 minutes was registered. One hour later, the mice were retested in the open field for 3 minutes, but this time with one of the “familiar” objects replaced by a new one (test). To analyze cognitive performance, a discrimination index was calculated as the difference in time exploring the novel and familiar object, expressed as the ratio of the total time spent exploring both objects, which made it possible to adjust for any differences in total exploration time. This test is useful for assessing impaired cognitive ability in transgenic strains of mice and evaluating novel chemical entities for their effect on cognition (Zhang, R. J Alzheimers Dis 2012, 31(4): 801-12). […] Neuroplasticity 2007, 26496).

[2] = read-out: Norepinephrine reuptake inhibition (IC50 μM)
[3] = read-out: Serotonin reuptake inhibition (IC50 μM)
[4] = Norepinephrine reuptake inhibition (IC50 μM)
[5] = Serotonin reuptake inhibition (IC50 μM)

uptake of norepinephrine, sequence (P23975 whole entry): as above

| SMILES | IC50 (uptake of norepinephrine; [2]) [µM] | IC50 (uptake of serotonin; [3]) [µM] | inhibition at 10 µM (serotonin transporter; concentration 10 μM) [%] | inhibition at 10 µM [1] [%] | IC50 (uptake of norepinephrine; [4]) [µM] | IC50 (uptake of serotonin; [5]) [µM] | inhibition at 10 µM (serotonin transporter) [%] | cognitive improvement (mice) |
| --- | --- | --- | --- | --- | --- | --- | --- | --- |
| CNCCC(Oc1ccc(CCO)cc1)c1ccccc1 (single isomer, unassigned) [Example 6, 2-[4-[3-(Methylamino)-1-phenylpropoxy]phenyl]ethanol ferulic acid salt] | 1.6 to 2.9 | 2.5 to 4.8 | – | – | – | – | – | – |
| CNCCC(Oc1ccc(CCO)cc1)c1ccccc1 (single isomer, unassigned) [Example 7, 2-[4-[3-(Methylamino)-1-phenylpropoxy]phenyl]ethanol caffeic acid salt] | 1.6 to 2.9 | 2.5 to 4.8 | 68 to 82 | – | – | – | – | – |
| O=C1CCCN1CCOc1ccc(CCO)cc1 [Example 1, 1-[2-[4-(2-Hydroxyethyl)phenoxy]ethyl]pyrrolidin-2-one] | 1.6 to 2.9 | 2.5 to 4.8 | 68 to 82 | 65 to 90 | – | – | – | – |
| CNCCC(Oc1ccc(CCO)cc1)c1ccccc1 [Example 5, 2-[4-[3-(Methylamino)-1-phenylpropoxy]phenyl]ethanol L-ascorbic acid salt] | – | – | – | 65 to 90 | 1.6 to 2.9 | 2.5 to 4.8 | 68 to 82 | – |
| CNCCC(Oc1ccc(CCO)cc1)c1ccccc1 (stereo not shown) [Example 8, 2-[4-[3-(Methylamino)-1-phenylpropoxy]phenyl]ethanol valproic acid salt] | – | – | – | – | 1.6 to 2.9 | 2.5 to 4.8 | – | – |
| CNCCC(Oc1ccc(CCO)cc1)c1ccccc1 [Example 9, 2-[4-[3-(Methylamino)-1-phenylpropoxy]phenyl]ethanol (R)-lipoic acid salt] | – | – | – | – | 1.6 to 2.9 | 2.5 to 4.8 | – | – |
| CNCCC(Oc1ccc(CCOC(C)=O)cc1)c1ccccc1 (stereo not shown) [Example 10, 4-[3-(Methylamino)-1-phenylpropoxy]phenethyl acetate hydrochloride] | 1.6 to 2.9 | 2.5 to 4.8 | 68 to 82 | 65 to 90 | – | – | – | – |
| CCCC(CCC)C(=O)N(C)CCC(Oc1ccc(CCO)cc1)c1ccccc1 (stereo not shown) [Example 11, N-[3-[4-(2-Hydroxyethyl)phenoxy]-3-phenylpropyl]-N-methyl-2-propylpentanamide] | 1.6 to 2.9 | 2.5 to 4.8 | 68 to 82 | 65 to 90 | – | – | – | – |
| CNCC[C@@H](Oc1ccc(CCO)cc1)c1cccs1 [Example 13, (R)-2-[4-[3-(Methylamino)-1-(thiophen-2-yl)propoxy]phenyl]ethanol] | 2.8 | 2.6 | 79 | 80 | – | – | – | – |
| CNCCC(Oc1ccc(CCCCO)cc1)c1ccccc1 (stereo not shown) [Example 14, 4-[4-[3-(Methylamino)-1-phenylpropoxy]phenyl]butan-1-ol hydrochloride] | 0.74 | 0.32 | 89 | 85 | – | – | – | – |
| CN(CCC(Oc1ccc(/C=C/CO)cc1)c1ccccc1)C(=O)OC(C)(C)C (stereo not shown) [Example 15, (E)-tert-Butyl [3-[4-(3-hydroxyprop-1-enyl)phenoxy]-3-phenylpropyl](methyl)carbamate] | 1.6 to 2.9 | 2.5 to 4.8 | 68 to 82 | 65 to 90 | – | – | – | – |
| CNCCC(Oc1ccc(CCCO)cc1)c1ccccc1 (stereo not shown) [Example 16, 3-[4-[3-(Methylamino)-1-phenylpropoxy]phenyl]propan-1-ol hydrochloride] | 0.46 | 2.36 | 78 | 90 | – | – | – | – |
| CNCCC(Oc1ccc(CO)cc1)c1ccccc1 (stereo not shown) [Example 17, [4-[3-(Methylamino)-1-phenylpropoxy]phenyl]methanol hydrochloride] | 0.13 | 0.42 | 97 | 94 | – | – | – | – |
| CNCCC(Oc1cc(CO)cc(CO)c1)c1ccccc1 (stereo not shown) [Example 19, [5-[3-(Methylamino)-1-phenylpropoxy]-1,3-phenylene]dimethanol hydrochloride] | 1.59 | 4.35 | 79 | 75 | – | – | – | – |
| CNCCC(Oc1cc(CCO)cc(CCO)c1)c1ccccc1 (stereo not shown) [Example 20, 2,2′-[5-[3-(Methylamino)-1-phenylpropoxy]-1,3-phenylene]diethanol] | 1.6 to 2.9 | 2.5 to 4.8 | 68 to 82 | 65 to 90 | – | – | – | – |
| CNCCC(Oc1cc(CCCO)cc(CCCO)c1)c1ccccc1 (stereo not shown) [Example 21, 3,3′-[5-[3-(Methylamino)-1-phenylpropoxy]-1,3-phenylene]dipropan-1-ol] | 1.6 to 2.9 | 2.5 to 4.8 | 68 to 82 | 65 to 90 | – | – | – | – |
| CNCCC(Oc1cc(CCCCO)cc(CCCCO)c1)c1ccccc1 (stereo not shown) [Example 22, 4,4′-[5-[3-(Methylamino)-1-phenylpropoxy]-1,3-phenylene]dibutan-1-ol] | 1.6 to 2.9 | 2.5 to 4.8 | 68 to 82 | 65 to 90 | – | – | – | – |
| CNCCC(Oc1ccc(CCO[C@@H]2O[C@H](CO)[C@@H](O)[C@H](O)[C@H]2O)cc1)c1ccccc1 (stereo partly drawn) [Example 23, (2R,3S,4S,5R,6R)-2-(Hydroxymethyl)-6-[4-[3-(methylamino)-1-phenylpropoxy]phenethoxy]tetrahydro-2H-pyran-3,4,5-triol] | 1.6 to 2.9 | 2.5 to 4.8 | 68 to 82 | 65 to 90 | – | – | – | – |
| CN(C)CCC(Oc1ccc(CCO)cc1)c1ccccc1 (stereo not shown) [Example 24, 2-[4-(3-Dimethylamino-1-phenylpropoxy)phenyl]ethanol] | 1.6 to 2.9 | 2.5 to 4.8 | 68 to 82 | 65 to 90 | – | – | – | – |
| CNCCC(Oc1ccc(C/C=C/CO)cc1)c1ccccc1 (stereo not shown) [Example 25, 4-[4-(3-Methylamino-1-phenylpropoxy)phenyl]but-2-en-1-ol] | 1.6 to 2.9 | 2.5 to 4.8 | 68 to 82 | 65 to 90 | – | – | – | – |
| CNCCC(Oc1ccc(CCCCCCO)cc1)c1ccccc1 (stereo not shown) [Example 26, 6-[4-(3-Methylamino-1-phenylpropoxy)phenyl]hexan-1-ol] | 1.6 to 2.9 | 2.5 to 4.8 | 68 to 82 | 65 to 90 | – | – | – | – |
| CNCCC(Oc1ccc(/C=C/CCCCO)cc1)c1ccccc1 (stereo not shown) [Example 27, 6-[4-(3-Methylamino-1-phenylpropoxy)phenyl]hex-5-en-1-ol] | 1.6 to 2.9 | 2.5 to 4.8 | 68 to 82 | 65 to 90 | – | – | – | – |
| CNCC[C@H](Oc1ccc(CCO)cc1)c1cccs1 [Example 28, (S)2-[4-(3-Methylamino-1-thiophen-2-ylpropoxy)phenyl]ethanol] | 1.6 to 2.9 | 2.5 to 4.8 | 68 to 82 | 65 to 90 | – | – | – | – |
| OCCc1ccc(OC(c2ccccc2)C2CNCCO2)cc1 (stereo not shown) [Example 29, 2-[4-(Morpholin-2-yl(phenyl)methoxy)phenyl]ethanol] | 1.6 to 2.9 | 2.5 to 4.8 | 68 to 82 | 65 to 90 | – | – | – | – |
| OCCc1ccc(OC[C@@H]2CNCC[C@H]2c2ccc(F)cc2)cc1 [Example 30, 2-[4-[[(3S,4R)-4-(4-Fluorophenyl)piperidin-3-yl]methoxy]phenyl]ethanol] | 1.6 to 2.9 | 2.5 to 4.8 | 68 to 82 | 65 to 90 | – | – | – | – |
| CN(C)CC(Oc1ccc(CCO)cc1)C1CCCCC1O (stereo not shown) [Example 31, 2-[2-Dimethylamino-1-[4-(2-hydroxyethyl)phenoxy]ethyl]cyclohexanol] | 1.6 to 2.9 | 2.5 to 4.8 | 68 to 82 | 65 to 90 | – | – | – | – |
| CN(C)CC(Oc1ccc(CCO)cc1)C1(O)CCCCC1 (stereo not shown) [Example 32, 1-[2-Dimethylamino-1-[4-(2-hydroxyethyl)phenoxy]-ethyl]-cyclohexanol] | 1.6 to 2.9 | 2.5 to 4.8 | 68 to 82 | 65 to 90 | – | – | – | – |
| CNCCC(Oc1ccc(C(F)(F)F)cc1)c1ccccc1 (stereo not shown) [Fluoxetine, reference compound] | – | – | – | – | – | – | – | absence of cognitive improvement |
| CCN(CC)C(=O)C1(c2ccccc2)CC1CN (stereo not shown) [milnacipran, reference compound] | – | – | – | – | – | – | – | absence of cognitive improvement |
